# In patent US12274264B2, “Piperonylic acid derivative and application thereof” (SHENYANG SINOCHEM AGROCHEMICALS R&D CO., LTD., priority 2019, dated 2025):
# Read-outs that look alike come from different tables or passages of the source.
# Columns and labels:
# [1] = system: trips tabaci; settings: concentration of 200 ppm; cited from earlier work
# [2] = system: Tetranychus urticae koch; settings: concentration of 200 ppm; cited from earlier work
# [3] = system: Spodoptera littoralis; settings: concentration of 200 ppm; cited from earlier work
# [4] = system: Plutella xylostella; settings: concentration of 200 ppm; cited from earlier work
# [5] = system: Tetranychus cinnabarinus adults; test: Determination of acaricidal activity (spray on bean plant leaves with adult spider mites, mortality after 72 hours); type: in vivo; settings: read-out: Mortality (%) against Tetranychus Cinnabarinus Adult
# Experimental: (§1) According to the solubility of test compounds, the compounds are dissolved with acetone or dimethyl sulfoxide, and then diluted with 0.1% Tween 80 solution to form a required concentration of 50 ml test liquid. The content of the acetone or the dimethyl sulfoxide in the total solution is not more than 10%.
# The adult spider mites were put into two true leaves of bean plants. After the number of mites was investigated, the solution of certain concentrations of test compounds was sprayed by using a handheld Airbrush. Three replicates were set for each treatment. Then the leaves were maintained in a standard observation room. After 72 hours, the number of surviving mites was investigated, and the mortality rate was calculated. Compounds I-41, KC3, KC4 and MC were selected for parallel determination of activity against Tetranychus cinnabarinus adults.
# [6] = system: western flower thrips nymphs; test: Determination of activity against western flower thrips nymphs (sprayed kidney bean leaves, mortality after 72 hours); type: in vivo; settings: Frankliniella occidentalis, read-out: Mortality (%) against Western Flower Thrips Nymphs
# Experimental: as §1
# Fresh kidney bean leaves cultured in the glasshouse were selected and uniformly sprayed with 1 ml of the test liquid by using a handheld Airbrush. The leaves were dried naturally and placed in a test tube. Fifteen tidy and healthy western flower thrips nymphs were put into the leaves. Three replicates were set for each treatment. The water treatment was set as control check. After the treatment, the treated tube were placed in a chamber of 24° C., 60%-70% relative humidity and day light. After 72 hours, the number of surviving insects was investigated, and the mortality was calculated.
# [7] = system: Tribolium confusum adults; test: Determination of Tribolium confusum adults (treated feeding bran, 72 h); type: in vivo; settings: 72 h, read-out: Mortality (%) against Tribolium Confusum Adults
# Experimental: as §1
# The test liquid was prepared in the order from low dose to high dose according to the test design. Then, the liquid of different concentrations was added to feeding bran and uniformly stirred, and dried in the shade. Then, the resulting feeding bran was collected in a paper cup. Fifty Tribolium confusum adults with consistent size were put in the paper cup. Three replicates were set for each treatment. Control check was set. The treated test materials were put in an observation room under controlled conditions. After 72 h, the number of dead and surviving adults was investigated.
# [8] = system: Plutella xylostella; settings: concentration of 1 ppm; cited from earlier work
# [9] = system: Spodoptera litura; settings: concentration of 1 ppm; cited from earlier work
Structure (SMILES),activities against trips tabaci [1],activities against Tetranychus urticae koch [2],activities against Spodoptera littoralis [3],activities against Plutella xylostella [4],"mortality at 10 µg/mL ([5]; 10 mg/L, after 72 hours) [%]","mortality at 100 µg/mL ([5]; 100 mg/L, after 72 hours) [%]","mortality at 600 µg/mL ([5]; 600 mg/L, after 72 hours) [%]","mortality at 10 µg/mL ([6]; 10 mg/L, after 72 hours) [%]","mortality at 100 µg/mL ([6]; 100 mg/L, after 72 hours) [%]",mortality at 5 µg/mL [7] [%],mortality at 20 µg/mL [7] [%],activities against Plutella xylostella [8],activities against Spodoptera litura [9],mortality at 10 µg/mL ([5]; 72 h) [%],mortality at 100 µg/mL ([5]; 72 h) [%],mortality at 600 µg/mL ([5]; 72 h) [%],mortality at 10 µg/mL ([6]; 72 h) [%],mortality at 100 µg/mL ([6]; 72 h) [%]
O=C(Nc1cccc(C(=O)Nc2c(Br)cc(C(F)(C(F)(F)F)C(F)(F)F)cc2OC(F)F)c1F)c1ccccc1 [KC4],greater than or equal to 80%,greater than or equal to 80%,greater than or equal to 80%,greater than or equal to 80%,0,0,0,37,52,,,,,,,,,
"CN(C(=O)c1ccccc1)c1cccc(C(=O)Nc2c(Br)cc(C(F)(C(F)(F)F)C(F)(F)F)cc2C(F)(F)F)c1F [KC3, Broflanilide]",,,,,,,,,,69,80,greater than or equal to 70%,greater than or equal to 70%,0,0,0,33,60
